Tests used:
Type in all cases: in vivo, human
[1] = Pulmonary function tests (FEV1, FVC) by spirometry, Phase 2 cystic fibrosis study
Experimental: Pulmonary function tests, including FEV1, FVC, and MEF25-75, are measured using standard spirometry procedures. Assessments of pulmonary function (including MEF25-75, FVC, and, particularly, FEV1) have been acknowledged as definitive clinical endpoints in patients with CF (Food and Drug Administration, 62nd Anti-Infective Drugs Advisory Committee. Discussion of NDA for tobramycin solution for inhalation (Tobi®) for the management of cystic fibrosis patients. November, 1997; Tiddens, 2002, Pediatr. Pulmonol. 34(3): 228-31). […] Pulmonary function testing is simple to administer (even in patients as young as 7 years of age), and uses standardized equipment and techniques that are widely available. Interpretation is performed using well-established normative equations that account for patient age, height, and gender.
(§1) 3-[5-(2-Fluoro-phenyl)-[1,2,4]oxadiazol-3-yl]-benzoic acid was provided in a formulation described herein.
(§2) Clinical endpoints were evaluated using the procedures set forth above. TEPD measurements were made prior to treatment and on days 14 and 28 of Cycle 1 and Cycle 2. Nasal mucosal curettage was collected from each nostril of each patient prior to treatment and on days 14 and 28 of Cycle 1 and Cycle 2. Pulmonary tests, including FEV1, FVC and MEF25-75, were measured prior to treatment, on day −1 of Cycle 2, on day 13 or 14 of Cycle 1 and day 13 or 14 of Cycle 2 in the study being conducted in Israel and the same parameters were measured prior to treatment and on day 13 or 14 of Cycle 2 in the study being conducted in the United States.
(§3) Statistically significant results and positive trends for secondary endpoints were also observed. In particular, although the trials were not been powered to detect statistical significant changes in secondary endpoints, statistically significant improvements from study entry to the end of the higher-dose treatment cycle in the patients' mean FEV1, FVC and weight were observed.

CFTR = assay: Transepithelial potential difference (TEPD) chloride conductance, Phase 2 study in nonsense-mutation-mediated cystic fibrosis; details: for Mean change in TEPD chloride conductance: 15 CF patients; for Number of patients with improvement in TEPD chloride conductance to normal / Number of patients with ≥−5 mV improvement in TEPD chloride conductance: patients/total
Experimental: The measurement of transepithelial potential difference (TEPD), also known as nasal potential difference, provides a sensitive evaluation of sodium and chloride transport directly in secretory epithelial cells via assessment of transepithelial bioelectric properties (Knowles et al., 1981, N. Engl. J. Med. 305(25):1489-95; Knowles et al., 1995, Hum. Gene Ther. 6:445). TEPD is performed in each nostril using standardized techniques (Standaert et al., 2004, Ped. Pulm. 37:385-92). In the procedure, a small plastic catheter is used to assess electrical differences across the outer cell membrane of nasal mucosa cells in the nostril. TEPD values are expressed in millivolts, or mV. A chloride conductance equal to or more electrically negative than −5.0 mV is generally considered to be in the normal range. […] TEPD assessments can also be made on rectal epithelial cells and lower respiratory epithelial cells. Because of the role of the CFTR protein in transporting chloride ions across cell membranes, and because of the absence of this protein, cystic fibrosis patients have an abnormal TEPD chloride conductance. As an endpoint, TEPD has the advantage that it can detect chloride transport changes that are a quantitative integration of the presence, functional activity, and apical location of the CFTR in airway cells. Furthermore, it is a direct measure of CFTR activity that is not likely to be affected by supportive or palliative treatments for CF (with the possible exception of systemically administered aminoglycoside antibiotics). Of importance is evidence that TEPD values can correlate with the degree of pulmonary dysfunction and radiographic abnormality (Ho et al., 1997, Eur. Respir. J. 10(9):2018-22; Fajac et al., 1998, Eur. Respir. J 12(6):1295-300; Sermet-Gaudelus et al., 2005, Am. J. Respit. Crit. Care Med. 171(9):1026-1031). […] Under baseline conditions, TEPD-assessed chloride channel activity is very unlikely to normalize spontaneously in patients with CF; any observed improvements in TEPD-assessed chloride channel activity are expected to specifically denote pharmacological activity of CFTR-correcting therapies. Accordingly, it has become the primary endpoint in Phase 1-2 pharmacological and gene replacement studies aimed at correcting CFTR dysfunction (Peckham et al., 1995, AJ. Clin Sci (London). 89(3):277-84; Wilschanski et al., 2003, N. Engl. J Med. 349(15):1433-41).
as §1, §2
This is the average of the changes from the beginning to the end of the treatment period in TEPD chloride conductance within each study participant. For example, if the changes in TEPD chloride conductance within each of three participants were −7.0 mV, −2.0 mV and −9.0 mV, the mean change in TEPD chloride conductance among these participants would be −6.0 mV.
For purposes of the trials, a chloride conductance response is defined as a TEPD chloride conductance improvement of at least −5 mV. For example, in a patient with a TEPD chloride conductance value of +1.0 mV at baseline and a TEPD chloride conductance value of −6.0 mV at the end of treatment, the TEPD chloride conductance improvement would be −7.0 mV, representing a chloride conductance response. […]

[2] = Body weight, Phase 2 cystic fibrosis study
Text: as §1, §3

[3] = Patient-reported changes in cystic fibrosis symptoms, asked by trial investigators; details: of the 15 patients in the interim analysis
Text: as §1
In addition, although changes in patient's symptoms were not formally measured through the use of a quality-of-life questionnaire, trial investigators were requested to ask about changes in patients' cystic fibrosis symptoms. In the 15 patients included in the interim analysis, 6 reported general improvements in well being, 6 reported decrease in cough and 10 reported decreased mucus thickness and easier clearing of mucus.

[4] = Change from study entry to end of higher dose treatment
[5] = Best of nostrils, higher dose level
[6] = Best of nostrils, lower dose level
[7] = Mean of both nostrils, higher dose level
[8] = Mean of both nostrils, lower dose level

O=C(O)c1cccc(-c2noc(-c3ccccc3F)n2)c1 [3-[5-(2-Fluoro-phenyl)-[1,2,4]oxadiazol-3-yl]-benzoic acid]
Mean FEV1 change (percentage of normal for gender, age and height) [1, 4]: 3.3% | Mean FVC change (percentage of normal for gender, age and height) [1, 4]: 4.9% | Mean FEV1 (percentage of normal for gender, age and height) ([1]; End of higher dose treatment, study entry 65.8%): 69.1% | Mean FVC (percentage of normal for gender, age and height) ([1]; End of higher dose treatment, study entry 80.2%): 85.1% | Number of patients with improvement in TEPD chloride conductance to normal (percentage) (CFTR; [5]): (53%) | Number of patients with ≥−5 mV improvement in TEPD chloride conductance (percentage) (CFTR; [5]): (53%) | Mean change in TEPD chloride conductance (CFTR; Best of nostrils, higher dose level (10, 10, 20 mg/kg TID oral, 14 days)): −6.4 mV | Number of patients with improvement in TEPD chloride conductance to normal (CFTR; [5]): 8/15 | Number of patients with ≥−5 mV improvement in TEPD chloride conductance (CFTR; [5]): 8/15 | Number of patients with improvement in TEPD chloride conductance to normal (percentage) (CFTR; [6]): (53%) | Number of patients with ≥−5 mV improvement in TEPD chloride conductance (percentage) (CFTR; [6]): (60%) | Mean change in TEPD chloride conductance (CFTR; Best of nostrils, lower dose level (4, 4, 8 mg/kg TID oral, 14 days)): −9.0 mV | Number of patients with improvement in TEPD chloride conductance to normal (CFTR; [6]): 8/15 | Number of patients with ≥−5 mV improvement in TEPD chloride conductance (CFTR; [6]): 9/15 | Number of patients with improvement in TEPD chloride conductance to normal (percentage) (CFTR; [7]): (47%) | Number of patients with ≥−5 mV improvement in TEPD chloride conductance (percentage) (CFTR; [7]): (47%) | Mean change in TEPD chloride conductance (CFTR; Mean of both nostrils, higher dose level (10, 10, 20 mg/kg TID oral, 14 days)): −4.4 mV | Number of patients with improvement in TEPD chloride conductance to normal (CFTR; [7]): 7/15 | Number of patients with ≥−5 mV improvement in TEPD chloride conductance (CFTR; [7]): 7/15 | Number of patients with improvement in TEPD chloride conductance to normal (percentage) (CFTR; [8]): (40%) | Number of patients with ≥−5 mV improvement in TEPD chloride conductance (percentage) (CFTR; [8]): (40%) | Mean change in TEPD chloride conductance (CFTR; Mean of both nostrils, lower dose level (4, 4, 8 mg/kg TID oral, 14 days)): −6.7 mV | Number of patients with improvement in TEPD chloride conductance to normal (CFTR; [8]): 6/15 | Number of patients with ≥−5 mV improvement in TEPD chloride conductance (CFTR; [8]): 6/15 | Weight change [2, 4]: 0.7 kg | Weight ([2]; End of higher dose treatment, study entry 58.3 kg): 59.0 kg | Patients who reported decrease in cough [3]: 6 | Patients who reported decreased mucus thickness and easier clearing of mucus [3]: 10 | Patients who reported general improvements in well being [3]: 6

— US11497736B2, “Compositions for an orally active 1,2,4-oxadiazole for the treatment of disease” (PTC Therapeutics, Inc., priority 2005, dated 2022)
